The record followed here is patent US11739098B2 (BRISTOL-MYERS SQUIBB COMPANY, priority 2017, dated 2023).

Common to all, as to assay type: cell-based
The target in one assay is T1, human TLR9 (Homo sapiens, UniProt Q9NR96).
T1 construct: host or cells: HEK-Blue cells (HEK293-derived reporter line)
T1 sequence (Q9NR96 26-1032): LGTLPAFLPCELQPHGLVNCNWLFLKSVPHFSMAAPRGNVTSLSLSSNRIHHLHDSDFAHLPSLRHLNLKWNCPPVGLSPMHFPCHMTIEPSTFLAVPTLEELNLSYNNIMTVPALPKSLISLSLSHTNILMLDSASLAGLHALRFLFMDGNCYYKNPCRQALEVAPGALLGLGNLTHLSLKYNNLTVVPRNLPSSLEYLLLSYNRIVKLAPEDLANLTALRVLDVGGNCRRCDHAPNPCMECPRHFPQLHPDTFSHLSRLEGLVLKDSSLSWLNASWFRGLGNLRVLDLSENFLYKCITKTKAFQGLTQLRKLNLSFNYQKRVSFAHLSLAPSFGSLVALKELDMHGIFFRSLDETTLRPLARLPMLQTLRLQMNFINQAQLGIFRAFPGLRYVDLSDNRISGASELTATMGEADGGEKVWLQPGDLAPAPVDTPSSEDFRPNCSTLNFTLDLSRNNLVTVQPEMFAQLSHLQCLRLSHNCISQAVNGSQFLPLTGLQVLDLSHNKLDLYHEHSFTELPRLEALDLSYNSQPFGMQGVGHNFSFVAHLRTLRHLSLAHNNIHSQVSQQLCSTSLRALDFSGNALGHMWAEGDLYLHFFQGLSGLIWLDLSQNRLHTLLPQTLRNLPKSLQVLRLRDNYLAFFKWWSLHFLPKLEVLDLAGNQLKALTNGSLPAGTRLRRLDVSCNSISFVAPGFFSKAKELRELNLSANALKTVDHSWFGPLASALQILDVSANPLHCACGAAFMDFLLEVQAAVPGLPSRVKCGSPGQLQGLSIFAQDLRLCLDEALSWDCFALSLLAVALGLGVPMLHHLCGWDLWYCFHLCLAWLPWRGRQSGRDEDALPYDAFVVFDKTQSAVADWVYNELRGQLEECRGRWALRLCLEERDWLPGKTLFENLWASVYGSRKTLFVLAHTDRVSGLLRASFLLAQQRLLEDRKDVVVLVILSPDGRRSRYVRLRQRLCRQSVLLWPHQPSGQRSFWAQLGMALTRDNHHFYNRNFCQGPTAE
The assay is described as follows: TLR9 inhibition reporter assay (HEK-Blue cells, SEAP reporter, ODN2006 stimulation). The note with it: HEK-Blue cells overexpressing human TLR9, SEAP reporter, ODN2006 5 nM. The procedure, abridged: (§1)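 HEK-Blue cells overexpressing the receptor, with NF-κB/AP-1-driven SEAP, were pre-treated 30 min at room temperature with compound (0.05 nM–50 μM), then stimulated with gardiquimod 7.5 μM (TLR7), R848 15.9 μM (TLR8) or ODN2006 5 nM (TLR9). SEAP was read after 22 h at 37 °C as percent inhibition.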
In general terms: Reporter assays use an easily measured gene product as a stand-in for the process of interest.

In another assay the target is T2, human TLR7 (Homo sapiens, UniProt Q9NYK1).
T2 construct: host or cells: HEK-Blue cells (HEK293-derived reporter line)
T2 sequence (Q9NYK1 27-1049): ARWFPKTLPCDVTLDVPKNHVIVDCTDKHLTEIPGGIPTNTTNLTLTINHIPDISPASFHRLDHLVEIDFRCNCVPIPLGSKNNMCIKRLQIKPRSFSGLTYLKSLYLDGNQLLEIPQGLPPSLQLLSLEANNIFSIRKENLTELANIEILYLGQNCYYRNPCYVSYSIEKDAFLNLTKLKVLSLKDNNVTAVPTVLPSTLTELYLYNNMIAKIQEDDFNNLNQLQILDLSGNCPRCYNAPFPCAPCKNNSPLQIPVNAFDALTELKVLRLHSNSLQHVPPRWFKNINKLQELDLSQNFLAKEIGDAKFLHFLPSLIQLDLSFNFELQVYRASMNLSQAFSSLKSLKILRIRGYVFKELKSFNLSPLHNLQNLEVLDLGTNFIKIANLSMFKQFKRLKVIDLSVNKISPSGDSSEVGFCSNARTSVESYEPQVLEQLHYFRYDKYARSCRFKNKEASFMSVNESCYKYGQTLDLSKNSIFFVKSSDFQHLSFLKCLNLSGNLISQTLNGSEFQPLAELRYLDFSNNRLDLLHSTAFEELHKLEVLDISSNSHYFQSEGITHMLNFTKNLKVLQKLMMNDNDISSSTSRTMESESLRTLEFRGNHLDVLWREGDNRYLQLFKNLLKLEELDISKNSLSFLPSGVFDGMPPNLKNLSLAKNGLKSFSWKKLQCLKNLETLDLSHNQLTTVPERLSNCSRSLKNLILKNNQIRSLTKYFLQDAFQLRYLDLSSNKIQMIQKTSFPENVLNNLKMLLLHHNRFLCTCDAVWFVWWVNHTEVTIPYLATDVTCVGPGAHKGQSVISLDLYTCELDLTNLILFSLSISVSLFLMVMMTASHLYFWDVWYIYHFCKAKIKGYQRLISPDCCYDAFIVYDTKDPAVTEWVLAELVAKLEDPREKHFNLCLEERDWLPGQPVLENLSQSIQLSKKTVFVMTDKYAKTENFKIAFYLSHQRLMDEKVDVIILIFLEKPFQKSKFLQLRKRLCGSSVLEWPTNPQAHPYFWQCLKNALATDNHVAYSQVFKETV
The assay is described as follows: TLR7 inhibition reporter assay (HEK-Blue cells, SEAP reporter, gardiquimod stimulation). The note with it: HEK-Blue cells overexpressing human TLR7, SEAP reporter, gardiquimod 7.5 μM. The procedure, abridged: as §1

Another assay deals with T3, human TLR8 (Homo sapiens, UniProt Q9NR97).
T3 construct: host or cells: HEK-Blue cells (HEK293-derived reporter line)
T3 sequence (Q9NR97 27-1041): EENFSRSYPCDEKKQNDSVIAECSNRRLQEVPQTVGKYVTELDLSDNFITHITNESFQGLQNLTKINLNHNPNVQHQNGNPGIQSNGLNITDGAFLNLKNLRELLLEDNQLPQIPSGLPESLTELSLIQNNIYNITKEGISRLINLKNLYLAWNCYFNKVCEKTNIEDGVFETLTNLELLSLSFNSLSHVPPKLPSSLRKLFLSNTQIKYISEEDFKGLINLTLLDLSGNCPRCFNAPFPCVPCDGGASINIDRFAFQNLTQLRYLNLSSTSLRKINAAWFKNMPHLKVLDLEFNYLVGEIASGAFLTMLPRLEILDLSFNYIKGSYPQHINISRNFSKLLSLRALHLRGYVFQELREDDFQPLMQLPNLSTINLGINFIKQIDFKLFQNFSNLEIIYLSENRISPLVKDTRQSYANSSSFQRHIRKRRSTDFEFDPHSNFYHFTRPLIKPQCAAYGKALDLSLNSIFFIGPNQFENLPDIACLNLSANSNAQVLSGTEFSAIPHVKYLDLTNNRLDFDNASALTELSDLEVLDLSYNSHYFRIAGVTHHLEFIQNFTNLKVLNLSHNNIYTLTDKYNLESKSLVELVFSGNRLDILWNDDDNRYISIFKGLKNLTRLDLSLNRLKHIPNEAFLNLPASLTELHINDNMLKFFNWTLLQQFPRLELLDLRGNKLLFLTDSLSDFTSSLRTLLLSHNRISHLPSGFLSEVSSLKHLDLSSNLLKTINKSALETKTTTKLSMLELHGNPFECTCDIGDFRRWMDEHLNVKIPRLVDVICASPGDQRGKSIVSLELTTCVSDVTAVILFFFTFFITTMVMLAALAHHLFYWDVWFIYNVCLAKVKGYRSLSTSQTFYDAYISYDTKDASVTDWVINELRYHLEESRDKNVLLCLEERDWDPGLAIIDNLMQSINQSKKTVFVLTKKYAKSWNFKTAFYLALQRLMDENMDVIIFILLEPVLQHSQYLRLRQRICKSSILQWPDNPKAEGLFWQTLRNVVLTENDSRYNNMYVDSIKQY
As to the kind of experiment: TLR8 inhibition reporter assay (HEK-Blue cells, SEAP reporter, R848 stimulation). Conditions: HEK-Blue cells overexpressing human TLR8, SEAP reporter, R848 15.9 μM. An outline of the steps: as §1

In general, IC50 refers to the midpoint of a concentration-inhibition curve. A higher IC50 goes with a need for much substance.

For the compound `CNC(=O)CN1CCC(c2ccc3[nH]c(-c4ccc5cnnn5c4)c(C(C)C)c3c2)CC1` [Example 300, 2-(4-(2-([1,2,3]triazolo[1,5-a]pyridin-6-yl)-3-isopropyl-1H-indol-5-yl)piperidin-1-yl)-N-methylacetamide], the IC50 lay within 1 to 50 µM against human TLR9, 0.1 to 1 µM at human TLR7 and 0.1 to 1 µM on human TLR8.
Consider `CC(C)c1c(-c2ccc(Cl)c3[nH]ncc23)[nH]c2ccc(C3CCN(C(=O)CN(C)C)CC3)cc12` [Example 556, 1-(4-(2-(7-chloro-1H-indazol-4-yl)-3-isopropyl-1H-indol-5-yl)piperidin-1-yl)-2-(dimethylamino)ethan-1-one], for which the IC50 was 1 to 50 µM on human TLR9, 0.1 to 1 µM on human TLR7 and 0.1 to 1 µM against human TLR8.
For `Cc1c(-c2ccc3[nH]nnc3c2)[nH]c2ccc(C3CCNCC3)cc12` [Example 52, 5-(3-methyl-5-(piperidin-4-yl)-1H-indol-2-yl)-1H-benzo[d][1,2,3]triazole], the figures for the IC50 on human TLR9, against human TLR7 and against human TLR8 were 0.1 to 1 µM, 1 to 50 µM and 1 to 50 µM, respectively.
On to `CC(C)c1c(-c2ccnc3[nH]ncc23)[nH]c2ccc(C3CCN(C4CCNCC4O)CC3)cc12` (stereo not drawn) [Example 804, 4-(3-isopropyl-2-(1H-pyrazolo[3,4-b]pyridin-4-yl)-1H-indol-5-yl)-[1,4′-bipiperidin]-3′-ol], for which the IC50 is 0.1 to 1 µM against human TLR9, < 0.1 µM against human TLR7 and < 0.1 µM on human TLR8.
For the compound `Cc1cn2cc(-c3[nH]c4ccc(C5CCNCC5)cc4c3C(C)C)cc(F)c2n1` [Example 126, 8-fluoro-6-(3-isopropyl-5-(piperidin-4-yl)-1H-indol-2-yl)-2-methylimidazo[1,2-a]pyridine], the IC50 against human TLR9 was 0.1 to 1 µM; at human TLR7 it was < 0.1 µM; against human TLR8, 0.1 to 1 µM.
Take `Cc1cc(-c2[nH]c3ccc(C4CCN(CC(=O)N(C)C)CC4)cc3c2C(C)C)cc2ccnn12` [Example 442, 2-(4-(3-isopropyl-2-(7-methylpyrazolo[1,5-a]pyridin-5-yl)-1H-indol-5-yl)piperidin-1-yl)-N,N-dimethylacetamide]: the IC50 is 1 to 50 µM against human TLR9, < 0.1 µM on human TLR7 and < 0.1 µM at human TLR8.
Regarding `CC(C)c1c(-c2ccnc3[nH]ncc23)[nH]c2ccc(C3CCNCC3)c(F)c12` [Example 259, 4-(4-fluoro-3-isopropyl-5-(piperidin-4-yl)-1H-indol-2-yl)-1H-pyrazolo[3,4-b]pyridine], the IC50 is 0.1 to 1 µM against human TLR9, < 0.1 µM on human TLR7 and < 0.1 µM on human TLR8.
On to `CCc1c(-c2ccnc3[nH]nc(C)c23)[nH]c2ccc(C3CCNCC3)cc12` [Example 226, 4-(3-ethyl-5-(piperidin-4-yl)-1H-indol-2-yl)-3-methyl-1H-pyrazolo[3,4-b]pyridine], for which the IC50 against human TLR9 was 0.1 to 1 µM; on human TLR7, < 0.1 µM; on human TLR8, < 0.1 µM.
Regarding `Cc1cc(-c2[nH]c3ccc(C4CCN(C(=O)CN(C)C)CC4)cc3c2C(C)C)cc2nccn12` [Example 500, 2-(dimethylamino)-1-(4-(3-isopropyl-2-(5-methylimidazo[1,2-a]pyridin-7-yl)-1H-indol-5-yl)piperidin-1-yl)ethan-1-one], the IC50 at human TLR9, at human TLR7 and against human TLR8 was 0.1 to 1 µM in each case.
For the compound `CC(C)c1c(-c2ccc3nccn3c2)[nH]c2ccc(C3CCN(C(=O)[C@@H]4CCCNC4)CC3)cc12` [Example 639, (R)-(4-(2-(imidazo[1,2-a]pyridin-6-yl)-3-isopropyl-1H-indol-5-yl)piperidin-1-yl)(piperidin-3-yl)methanone], the IC50 against human TLR9 is 0.1 to 1 µM; at human TLR7, < 0.1 µM; against human TLR8, 0.1 to 1 µM.
For `CC(C)c1c(-c2cc(C(F)(F)F)c3nccn3c2)[nH]c2ccc(C3CCNCC3)cc12` [Example 136, 6-(3-isopropyl-5-(piperidin-4-yl)-1H-indol-2-yl)-8-(trifluoromethyl)imidazo[1,2-a]pyridine], the IC50 against human TLR9 was 0.1 to 1 µM; on human TLR7, < 0.1 µM; at human TLR8, < 0.1 µM.
For `Cc1cc(-c2[nH]c3ccc(C4CCN(C(=O)CN(C)C)CC4)cc3c2C(C)C)cn2nncc12` [Example 467, 2-(dimethylamino)-1-(4-(3-isopropyl-2-(4-methyl-[1,2,3]triazolo[1,5-a]pyridin-6-yl)-1H-indol-5-yl)piperidin-1-yl)ethan-1-one], the IC50 against human TLR9 was 1 to 50 µM; at human TLR7, 0.1 to 1 µM; at human TLR8, 1 to 50 µM.
For `Cc1cc(-c2[nH]c3ccc(C4CCN(CC(C)(C)O)CC4)cc3c2C(C)C)cc2cnn(C)c12` [Example 762, 1-(4-(2-(1,7-dimethyl-1H-indazol-5-yl)-3-isopropyl-1H-indol-5-yl)piperidin-1-yl)-2-methylpropan-2-ol], the values for the IC50 against human TLR9, against human TLR7 and at human TLR8 were 1 to 50 µM, 0.1 to 1 µM and 0.1 to 1 µM, respectively.
